Experimental data as given in BindingDB's records for doi:10.1021/jm00126a022 (University of South Alabama, 1989).

Biological target: GAR formyltransferase (Lactobacillus casei)
Assay: Inhibition of the GAR formyl transferase in lactobacillus casei

IC50: > 20 µM
SMILES: CC(Cc1ccc(C(=O)NC(CCC(=O)O)C(=O)O)cc1)Cc1cnc2nc(N)[nH]c(=O)c2n1 (stereo unspecified)
